Assay results from patent US8703765B2, “Cyclic inhibitors of 11β-hydroxysteroid dehydrogenase 1” (Boehringer Ingelheim International GmbH, priority 2009, dated 2014).

target: T1, 11β-HSD1 (Homo sapiens, UniProt P28845); assay: In vitro inhibition of 11β-HSD1, HTRF detection of cortisol generated by human liver microsomes; type: biochemical; conditions: cortisone 80 nM, NADPH 200 μM, 1 hour at 37° C., pH 6.0
T1 construct: detecting cortisol generated from cortisterone by human liver microsomes; from tissue; host or cells: human liver microsomes
T1 sequence (P28845 whole entry): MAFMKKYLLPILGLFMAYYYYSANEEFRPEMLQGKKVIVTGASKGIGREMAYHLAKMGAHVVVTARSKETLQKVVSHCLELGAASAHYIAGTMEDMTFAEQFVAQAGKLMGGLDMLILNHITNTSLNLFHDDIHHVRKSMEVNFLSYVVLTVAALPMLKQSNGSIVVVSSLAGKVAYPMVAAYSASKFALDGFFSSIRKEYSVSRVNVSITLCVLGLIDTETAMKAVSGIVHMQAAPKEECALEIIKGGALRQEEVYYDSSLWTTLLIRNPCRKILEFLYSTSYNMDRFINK
Method: In vitro inhibition of 11 β-HSD1 by test compounds was determined with HTRF (Homogeneous Time-Resolved Fluorescence) technology (cisbio international, France) detecting cortisol generated from cortisterone by human liver microsomes. Briefly, compounds were incubated for 1 hour at 37° C. in Tris buffer (20 mM tris, 5 mM EDTA, pH 6.0) containing NADPH (200 μM) and cortisone (80 nM). Cortisol generated in the reaction was then detected with a competitive immunoassay, involving two HTRF conjugates: cortisol linked to XL665 and anti-cortisol antibody labeled with Europium cryptate. The incubation period for detection reaction was typically 2 hours. The amount of cortisol was determined by reading the time-resolved fluorescence of the wells (Ex 320/75 nm; Em 615/8.5 nm and 665/7.5 nm). The ratio of the two emission signals is then calculated (Em665*10000/Em615). […] Each assay also contained a calibration curve with cortisol to transform the fluorescent data into cortisol concentrations. Percent inhibition of each compound was determined relative to the carbenoxolone signal and IC50 curves were generated.
In Table 1 the 11β-HSD 1 inhibitory activities, determined as described above, are compiled.

IC50 | SMILES
960 nM | CC(C)(O)C[C@@]1(c2ccccc2)CCN([C@H](c2ccc(Br)cc2)C2CC2)C(=O)O1 (racemic) [Example 2, 3-[(4-Bromo-phenyl)-cyclopropyl-methyl]-6-(2-hydroxy-2-methyl-propyl)-6-phenyl-[1,3]oxazinan-2-one]
> 10000 nM | Cn1ccc(-c2ccc([C@H](C3CC3)N3CC[C@@](CC(C)(C)O)(c4ccccc4)OC3=O)cc2)cc1=O (racemic) [Example 4, 3-{Cyclopropyl-[4-(1-methyl-2-oxo-1,2-dihydro-pyridin-4-yl)-phenyl]-methyl}-6-(2-hydroxy-2-methyl-propyl)-6-phenyl-[1,3]oxazinan-2-one]
65 nM | CC(C)(O)CC1(c2ccccc2)CCN(C(c2ccc(Br)cc2)C2CC2)C(=O)O1 (stereo not drawn) [Example 1, 3-[(4-Bromo-phenyl)-cyclopropyl-methyl]-6-(2-hydroxy-2-methyl-propyl)-6-phenyl-[1,3]oxazinan-2-one]
111 nM | Cn1ccc(-c2ccc(C(C3CC3)N3CCC(CC(C)(C)O)(c4ccccc4)OC3=O)cc2)cc1=O (stereo not drawn) [Example 3, 3-{Cyclopropyl-[4-(1-methyl-2-oxo-1,2-dihydro-pyridin-4-yl)-phenyl]-methyl}-6-(2-hydroxy-2-methyl-propyl)-6-phenyl-[1,3]oxazinan-2-one]
> 4500 nM | Cn1ccc(-c2ccc([C@@H](C3CC3)N3CC[C@@](CC(C)(C)O)(c4ccccc4)OC3=O)cc2)cc1=O [Example 3b, 3-{(R)-cyclopropyl-[4-(1-methyl-2-oxo-1,2-dihydro-pyridin-4-yl)-phenyl]methyl}-(R)-6-(2-hydroxy-2-methyl-propyl)-6-phenyl-[1,3]oxazinan-2-one]
35 nM | Cn1cc(-c2ccc(C(C3CC3)N3CCC(CC(C)(C)O)(c4ccccc4)OC3=O)cc2)ccc1=O (stereo not drawn) [Example 5, 3-{Cyclopropyl-[4-(1-methyl-6-oxo-1,6-dihydro-pyridin-3-yl)-phenyl]-methyl}-6-(2-hydroxy-2-methyl-propyl)-6-phenyl-[1,3]oxazinan-2-one]
53 nM | CC(C)(O)C[C@]1(c2ccccc2)CCN([C@H](c2ccc(Br)cc2)C2CC2)C(=O)O1 [Example 6, 3-[(S)-(4-Bromo-phenyl)-cyclopropyl-methyl]-(S)-6-(2-hydroxy-2-methyl-propyl)-6-phenyl-[1,3]oxazinan-2-one]
64 nM | Cn1ccc(-c2ccc([C@H](C3CC3)N3CC[C@](CC(C)(C)O)(c4ccccc4)OC3=O)cc2)cc1=O [Example 7, 3-{(S)-Cyclopropyl-[4-(1-methyl-2-oxo-1,2-dihydro-pyridin-4-yl)-phenyl]-methyl}-(S)-6-(2-hydroxy-2-methyl-propyl)-6-phenyl-[1,3]oxazinan-2-one]
29 nM | Cc1ccc(-c2ccc([C@H](C3CC3)N3CC[C@](CC(C)(C)O)(c4ccccc4)OC3=O)cc2)nn1 [Example 8, 3-{(S)-Cyclopropyl-[4-(6-methyl-pyridazin-3-yl)-phenyl]methyl}-(S)-6-(2-hydroxy-2-methyl-propyl)-6-phenyl-[1,3]oxazinan-2-one]
38 nM | CC(C)(O)C[C@]1(c2ccccc2)CCN([C@H](c2ccc(-c3ccn(C4CC4)c(=O)c3)cc2)C2CC2)C(=O)O1 [Example 9, 3-{(S)-Cyclopropyl-[4-(1-cyclopropyl-2-oxo-1,2-dihydro-pyridin-4-yl)-phenyl]-methyl}-(S)-6-(2-hydroxy-2-methyl-propyl)-6-phenyl-[1,3]oxazinan-2-one]
70 nM | Cn1cc(-c2ccc([C@H](C3CC3)N3CC[C@](CC(C)(C)O)(c4ccccc4)OC3=O)cc2)ccc1=O [Example 10, 3-{(S)-Cyclopropyl-[4-(1-methyl-6-oxo-1,6-dihydro-pyridin-3-yl)-phenyl]-methyl}-(S)-6-(2-hydroxy-2-methyl-propyl)-6-phenyl-[1,3]oxazinan-2-one]
54 nM | Cc1ncc(-c2ccc([C@H](C3CC3)N3CC[C@](CC(C)(C)O)(c4ccccc4)OC3=O)cc2)cn1 [Example 11, 3-{(S)-Cyclopropyl-[4-(2-methyl-pyrimidin-5-yl)-phenyl]methyl}-(S)-6-(2-hydroxy-2-methyl-propyl)-6-phenyl-[1,3]oxazinan-2-one]
